Data from the NIST ThermoML archive (doi:10.1016/j.jct.2018.12.021).

Assay: mn = molality of the nth substance listed, in mol/kg
Details: for electrical conductivity / mass density: 100 kPa, Liquid; for electrical conductivity: Direct current cell with electrodes; for mass density: Vibrating tube method; for surface tension liquid-gas: Ring tensiometer

CCCCCCCCCCCC[n+]1cscc1C.[Br-] [N-dodecyl-4-methylthiazolium bromide] + O
Details	electrical conductivity [S/m]	mass density [kg/m3]	surface tension liquid-gas [mN/m]
293.15 K, m1 = 0.0015	0.0135	998.25	–
293.15 K, m1 = 0.00206	0.0179	998.29	–
293.15 K, m1 = 0.0025	0.0221	998.31	–
293.15 K, m1 = 0.00402	0.0346	998.4	–
293.15 K, m1 = 0.005	0.0428	998.45	–
293.15 K, m1 = 0.00561	–	998.48	–
293.15 K, m1 = 0.00708	0.0591	998.56	–
293.15 K, m1 = 0.00803	–	998.6	–
293.15 K, m1 = 0.00906	0.0738	998.66	–
293.15 K, m1 = 0.01216	0.0813	998.81	–
293.15 K, m1 = 0.01507	0.0893	998.96	–
293.15 K, m1 = 0.01759	–	999.07	–
293.15 K, m1 = 0.02033	0.106	999.21	–
293.15 K, m1 = 0.02365	–	999.38	–
298.15 K, m1 = 0.0015	0.015	997.07	–
298.15 K, m1 = 0.00206	0.02	997.1	–
298.15 K, m1 = 0.0025	0.0246	997.12	–
298.15 K, m1 = 0.00402	0.0387	997.2	–
298.15 K, m1 = 0.005	0.0479	997.25	–
298.15 K, m1 = 0.00561	–	997.29	–
298.15 K, m1 = 0.00708	0.0662	997.36	–
298.15 K, m1 = 0.00803	–	997.42	–
298.15 K, m1 = 0.00906	0.0822	997.47	–
298.15 K, m1 = 0.01216	0.0921	997.62	–
298.15 K, m1 = 0.01507	0.101	997.75	–
298.15 K, m1 = 0.01759	–	997.86	–
298.15 K, m1 = 0.02033	0.12	998	–
298.15 K, m1 = 0.02365	–	998.16	–
303.15 K, m1 = 0.0015	0.0166	995.66	47.78
303.15 K, m1 = 0.00206	0.0222	995.68	43.39
303.15 K, m1 = 0.0025	0.0272	995.7	41.79
303.15 K, m1 = 0.00402	0.0428	995.77	39.49
303.15 K, m1 = 0.005	0.0529	995.82	35.96
303.15 K, m1 = 0.00561	–	995.86	–
303.15 K, m1 = 0.00708	0.0733	995.93	30.49
303.15 K, m1 = 0.00803	–	995.98	–
303.15 K, m1 = 0.00906	0.0917	996.03	30.89
303.15 K, m1 = 0.01216	0.103	996.17	31.36
303.15 K, m1 = 0.01507	0.114	996.3	30.86
303.15 K, m1 = 0.01759	–	996.4	–
303.15 K, m1 = 0.02033	0.137	996.53	30.91
303.15 K, m1 = 0.02365	–	996.65	–
308.15 K, m1 = 0.0015	0.0184	994.04	–
308.15 K, m1 = 0.00206	0.0244	994.06	–
308.15 K, m1 = 0.0025	0.03	994.08	–
308.15 K, m1 = 0.00402	0.047	994.13	–
308.15 K, m1 = 0.005	0.0581	994.18	–
308.15 K, m1 = 0.00561	–	994.21	–
308.15 K, m1 = 0.00708	0.0803	994.28	–
308.15 K, m1 = 0.00803	–	994.33	–
308.15 K, m1 = 0.00906	0.1	994.37	–
308.15 K, m1 = 0.01216	0.114	994.49	–
308.15 K, m1 = 0.01507	0.127	994.61	–
308.15 K, m1 = 0.01759	–	994.69	–
308.15 K, m1 = 0.02033	0.15	994.82	–
308.15 K, m1 = 0.02365	–	994.89	–
313.15 K, m1 = 0.0015	0.02	992.22	–
313.15 K, m1 = 0.00206	0.0267	992.23	–
313.15 K, m1 = 0.0025	0.0329	992.24	–
313.15 K, m1 = 0.00402	0.0515	992.28	–
313.15 K, m1 = 0.005	0.0634	992.31	–
313.15 K, m1 = 0.00561	–	992.34	–
313.15 K, m1 = 0.00708	0.0877	992.39	–
313.15 K, m1 = 0.00803	–	992.43	–
313.15 K, m1 = 0.00906	0.11	992.47	–
313.15 K, m1 = 0.01216	0.125	992.61	–
313.15 K, m1 = 0.01507	0.138	992.72	–
313.15 K, m1 = 0.01759	–	992.81	–
313.15 K, m1 = 0.02033	0.162	992.9	–
313.15 K, m1 = 0.02365	–	993	–
